Test results taken from patent publication US12054487B2, “Muscarinic acetylcholine M1 receptor antagonists” (Contineum Therapeutics, Inc., priority 2018, dated 2024).
pIC50: −log10 of the molar value.

Tests used:
Type in all cases: cell-based
human M1 receptor = target: T1, human M1 receptor (Homo sapiens, UniProt P11229); experiment: In vitro functional assay of muscarinic acetylcholine receptor activity (aequorin calcium flux, antagonist mode vs EC80 acetylcholine), M1; conditions: CHO-K1 cells stably expressing human M1 receptor with Aequorin; decrease in EC80 acetylcholine response
T1 construct: host or cells: CHO-K1
T1 sequence (P11229 1-460): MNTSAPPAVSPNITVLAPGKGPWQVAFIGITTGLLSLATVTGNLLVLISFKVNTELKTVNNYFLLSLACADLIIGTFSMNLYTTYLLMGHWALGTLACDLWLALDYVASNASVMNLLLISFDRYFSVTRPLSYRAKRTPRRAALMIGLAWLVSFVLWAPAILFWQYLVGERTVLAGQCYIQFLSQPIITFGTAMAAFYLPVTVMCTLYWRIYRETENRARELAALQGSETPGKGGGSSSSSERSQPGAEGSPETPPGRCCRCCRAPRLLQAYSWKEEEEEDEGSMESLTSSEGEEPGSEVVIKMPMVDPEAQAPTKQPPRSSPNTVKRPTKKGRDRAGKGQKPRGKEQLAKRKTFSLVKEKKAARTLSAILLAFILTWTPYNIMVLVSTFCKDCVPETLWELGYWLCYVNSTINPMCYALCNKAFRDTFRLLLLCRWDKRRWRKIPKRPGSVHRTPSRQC
Experimental: (§1) CHO-K1 cells stably expressing human M1 receptor with Aequorin (Perkin Elmer) were grown in F12 media, 10% FBS with 0.4 mg/mL geneticin and […]. Cells were grown to confluence and frozen down to be assayed at a later date. On the day of the experiment cells were thawed in a 37° C. water bath, resuspended in DMEM/HAM's F12 with HEPES (Invitrogen)+0.1% protease-free BSA (assay buffer), and spun down to remove freezing media. After centrifugation, supernatant was removed and 12 mL of assay buffer was added. Coelenterazine h (Promega) was added to the cells at a final concentration of 5 uM and incubated for 4 hours at room temperature in the dark. Compound master plate-96 deep well (Corning) were formatted in a 8-point DRC in assay buffer with 0.2% DMSO at a starting concentration of 60 uM (2×). After 4 hours of incubation, cells were plated at a concentration of 5×10^5 cells/well in 96 well white-walled, tissue culture-treated, clear-bottom plates (VWR). Compounds were added to the daughter plate, and cells plus compound were incubated at room temperature for 30 minutes in the dark.
(§2) Calcium flux was measured using the FlexStation 3 (Molecular Devices). To measure the antagonist dose-response, the EC80 of Acetylcholine was injected to the daughter plate using the automated compound transfer function of the Flex Station, and the increase in luminescence was measured over time. Antagonist activity was analyzed as a concentration dependent decrease in the EC80 acetylcholine response. Dose response curves were generated using Prism (GraphPad Software). The IC50 of the compounds was calculated from the dose response curve.

M3 = M3 (Homo sapiens, UniProt P20309); experiment: In vitro functional assay of muscarinic acetylcholine receptor activity, M3; conditions: antagonist activity; M3 method not separately described
Experimental: [The procedure below names another target; the source lists this target under the same test.] as §1, §2

M2 = target: T2, M2 (Homo sapiens, UniProt P08172); experiment: In vitro functional assay of muscarinic acetylcholine receptor activity, M2; conditions: antagonist activity; M2 method not separately described
T2 sequence (P08172 1-466): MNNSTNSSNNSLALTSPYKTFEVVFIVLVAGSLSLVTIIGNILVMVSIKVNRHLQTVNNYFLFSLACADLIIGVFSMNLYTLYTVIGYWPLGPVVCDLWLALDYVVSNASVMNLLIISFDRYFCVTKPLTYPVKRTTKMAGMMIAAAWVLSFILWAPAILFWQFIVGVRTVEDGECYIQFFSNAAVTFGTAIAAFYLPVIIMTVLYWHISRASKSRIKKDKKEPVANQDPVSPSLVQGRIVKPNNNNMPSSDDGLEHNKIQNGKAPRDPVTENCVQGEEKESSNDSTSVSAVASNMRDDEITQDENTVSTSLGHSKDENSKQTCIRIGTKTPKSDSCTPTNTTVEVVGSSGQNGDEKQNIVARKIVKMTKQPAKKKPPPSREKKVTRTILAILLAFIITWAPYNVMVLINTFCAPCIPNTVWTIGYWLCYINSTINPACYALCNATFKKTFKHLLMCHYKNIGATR
Experimental: [The procedure below names another target; the source lists this target under the same test.] as §1, §2

M3, sequence (P20309 whole entry): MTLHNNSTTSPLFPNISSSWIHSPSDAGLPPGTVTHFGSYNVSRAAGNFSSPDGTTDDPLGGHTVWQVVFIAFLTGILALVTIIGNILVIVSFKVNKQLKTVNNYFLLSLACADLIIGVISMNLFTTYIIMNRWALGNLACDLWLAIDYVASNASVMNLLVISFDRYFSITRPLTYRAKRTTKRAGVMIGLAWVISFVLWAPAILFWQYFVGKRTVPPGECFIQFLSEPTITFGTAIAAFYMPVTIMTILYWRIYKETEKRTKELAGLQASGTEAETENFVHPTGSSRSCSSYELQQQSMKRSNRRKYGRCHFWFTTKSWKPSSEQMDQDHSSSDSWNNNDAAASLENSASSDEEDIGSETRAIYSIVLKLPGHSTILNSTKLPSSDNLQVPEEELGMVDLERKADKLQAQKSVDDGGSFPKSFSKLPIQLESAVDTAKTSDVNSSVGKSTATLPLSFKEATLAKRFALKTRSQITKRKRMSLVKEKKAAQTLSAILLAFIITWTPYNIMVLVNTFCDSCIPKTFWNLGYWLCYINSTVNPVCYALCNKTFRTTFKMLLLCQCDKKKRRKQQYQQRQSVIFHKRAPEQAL

Row | Compound | pIC50 (human M1 receptor) | pIC50 (M3) | pIC50 (M2)
1 | O=C1[C@@H](CCCc2cccc3ncnn23)C[C@H]2CN(c3ccc(C4CC4)cn3)CCN12 [Example 45, (8aS)-7-(3-([1,2,4]triazolo[1,5-a]pyridin-5-yl)propyl)-2-(5-cyclopropylpyridin-2-yl)hexahydropyrrolo[1,2-a]pyrazin-6(2H)-one] | > 7.00 | 6.00 to 7.00 | > 7.00
2 | O=C1[C@@H](CCCc2cccc3ncnn23)C[C@H]2CN(c3ccc(F)cc3)CCN12 [Example 47, (7S,8aS)-7-(3-([1,2,4]triazolo[1,5-a]pyridin-5-yl)propyl)-2-(4-fluorophenyl)hexahydropyrrolo[1,2-a]pyrazin-6(2H)-one] | 6.00 to 7.00 | < 5.00 | < 5.00
3 | N#Cc1cc(N2CCN3C(=O)[C@@H](CCCc4cccc5ncnn45)C[C@H]3C2)ccc1F [Example 52, 5-((7S,8aS)-7-(3-([1,2,4]triazolo[1,5-a]pyridin-5-yl)propyl)-6-oxohexahydropyrrolo [1,2-a]pyrazin-2(1H)-yl)-2-fluorobenzonitrile] | 6.00 to 7.00 | 5.00 to 6.00 | 6.00 to 7.00
4 | O=C1[C@@H](CCCc2cccc3ncnn23)C[C@H]2CN(c3ccc(CO)cn3)CCN12 [Example 53, (7S,8aS)-7-(3-([1,2,4]triazolo[1,5-a]pyridin-5-yl)propyl)-2-(5-(hydroxymethyl)pyridin-2-yl)hexahydropyrrolo[1,2-a]pyrazin-6(2H)-one] | > 7.00 | < 5.00 | 5.00 to 6.00
5 | Cn1cnc2cccc(CCC[C@H]3C[C@H]4CN(c5ccc(C#N)cn5)CCN4C3=O)c21 [Example 54, 6-((7S,8aS)-7-(3-(1-methyl-1H-benzo[d]imidazol-7-yl)propyl)-6-oxohexahydropyrrolo[1,2-a]pyrazin-2(1H)-yl)nicotinonitrile] | > 7.00 | 5.00 to 6.00 | 6.00 to 7.00
6 | N#Cc1ccc(N2CCN3C(=O)[C@@H](CCCc4cccn5nccc45)C[C@H]3C2)nc1 [Example 58, 6-((7S,8aS)-6-oxo-7-(3-(pyrazolo[1,5-a]pyridin-4-yl)propyl)hexahydropyrrolo[1,2-a]pyrazin-2(1H)-yl)nicotinonitrile] | > 7.00 | 6.00 to 7.00 | 6.00 to 7.00
7 | N#Cc1ccc(N2CCN3C(=O)[C@@H](CCCc4cccc5c4NCCN5)C[C@H]3C2)nc1 [Example 61, 6-((7S,8aS)-6-oxo-7-(3-(1,2,3,4-tetrahydroquinoxalin-5-yl)propyl)hexahydropyrrolo[1,2-a]pyrazin-2(1H)-yl)nicotinonitrile] | 6.00 to 7.00 | < 5.00 | 5.00 to 6.00
8 | O=C1[C@@H](CCCc2cccn3ncnc23)C[C@H]2CN(c3ncc(Cl)cn3)CCN12 [Example 64, (7S,8aS)-7-(3-([1,2,4]triazolo[1,5-a]pyridin-8-yl)propyl)-2-(5-chloropyrimidin-2-yl)hexahydropyrrolo[1,2-a]pyrazin-6(2H)-one] | > 7.00 | 5.00 to 6.00 | 6.00 to 7.00
9 | O=C1[C@@H](CCCc2cccn3ncnc23)C[C@H]2CN(c3ncccn3)CCN12 [Example 66, (7S,8aS)-7-(3-([1,2,4]triazolo[1,5-a]pyridin-8-yl)propyl)-2-(pyrimidin-2-yl)hexahydropyrrolo[1,2-a]pyrazin-6(2H)-one] | 6.00 to 7.00 | < 5.00 | < 5.00

The next lines start with the values.

Row | pIC50 (human M1 receptor) | pIC50 (M3) | pIC50 (M2) | Compound
10 | > 7.00 | < 5.00 | < 5.00 | Cc1ccc(N2CCN3C(=O)[C@@H](CCCc4cccc5ncnn45)C[C@H]3C2)nc1 [Example 40, (7S,8aS)-7-(3-([1,2,4]triazolo[1,5-a]pyridin-5-yl)propyl)-2-(5-methylpyridin-2-yl)hexahydropyrrolo[1,2-a]pyrazin-6(2H)-one]
11 | > 7.00 | 5.00 to 6.00 | 5.00 to 6.00 | Cc1ccc(N2CCN3C(=O)[C@@H](CCCc4cccc5ncnn45)C[C@H]3C2)nn1 [Example 48, (7S,8aS)-7-(3-([1,2,4]triazolo[1,5-a]pyridin-5-yl)propyl)-2-(6-methylpyridazin-3-yl)hexahydropyrrolo[1,2-a]pyrazin-6(2H)-one]
12 | > 7.00 | 5.00 to 6.00 | 5.00 to 6.00 | COCc1ccc(N2CCN3C(=O)[C@@H](CCCc4cccc5ncnn45)C[C@H]3C2)nc1 [Example 49, (7S,8aS)-7-(3-([1,2,4]triazolo[1,5-a]pyridin-5-yl)propyl)-2-(5-(methoxymethyl)pyridin-2-yl)hexahydropyrrolo[1,2-a]pyrazin-6(2H)-one]
13 | 6.00 to 7.00 | 5.00 to 6.00 | 5.00 to 6.00 | Cn1ncc2cccc(CCC[C@H]3C[C@H]4CN(c5ccc(C#N)cn5)CCN4C3=O)c21 [Example 55, 6-((7S,8aS)-7-(3-(1-methyl-1H-indazol-7-yl)propyl)-6-oxohexahydropyrrolo[1,2-a]pyrazin-2(1H)-yl)nicotinonitrile]
14 | > 7.00 | 6.00 to 7.00 | 6.00 to 7.00 | N#Cc1ccc(N2CCN3C(=O)[C@@H](CCCc4cccnn4)C[C@H]3C2)nc1 [Example 56, 6-((7S,8aS)-6-oxo-7-(3-(pyridazin-3-yl)propyl)hexahydropyrrolo[1,2-a]pyrazin-2(1H)-yl)nicotinonitrile]
15 | 5.00 to 6.00 | < 5.00 | 5.00 to 6.00 | Cc1nccnc1CCC[C@H]1C[C@H]2CN(c3ccc(C#N)cn3)CCN2C1=O [Example 57, 6-((7S,8aS)-7-(3-(3-methylpyrazin-2-yl)propyl)-6-oxohexahydropyrrolo[1,2-a]pyrazin-2(1H)-yl)nicotinonitrile]
16 | > 7.00 | 5.00 to 6.00 | 6.00 to 7.00 | N#Cc1ccc(N2CCN3C(=O)[C@@H](CCCc4cccc5ncccc45)C[C@H]3C2)nc1 [Example 59, 6-((7S,8aS)-6-oxo-7-(3-(quinolin-5-yl)propyl)hexahydropyrrolo[1,2-a]pyrazin-2(1H)-yl)nicotinonitrile]
17 | > 7.00 | 6.00 to 7.00 | > 7.00 | N#Cc1ccc(N2CCN3C(=O)[C@@H](CCCc4cccc5nccnc45)C[C@H]3C2)nc1 [Example 60, 6-((7S,8aS)-6-oxo-7-(3-(quinoxalin-5-yl)propyl)hexahydropyrrolo[1,2-a]pyrazin-2(1H)-yl)nicotinonitrile]
18 | > 7.00 | 5.00 to 6.00 | 5.00 to 6.00 | O=C1[C@@H](CCCc2cccn3ncnc23)C[C@H]2CN(c3ccc(F)cn3)CCN12 [Example 62, (7S,8aS)-2-(5-fluoropyridin-2-yl)-7-(3-{[1,2,4]triazolo[1,5-a]pyridin-8-yl}propyl)-octahydropyrrolo[1,2-a]pyrazin-6-one]
19 | > 7.00 | 5.00 to 6.00 | < 5.00 | O=C1[C@@H](CCCc2cccn3ncnc23)C[C@H]2CN(c3ncc(F)cn3)CCN12 [Example 63, (7S,8aS)-7-(3-([1,2,4]triazolo[1,5-a]pyridin-8-yl)propyl)-2-(5-fluoropyrimidin-2-yl)hexahydropyrrolo[1,2-a]pyrazin-6(2H)-one]
20 | 6.00 to 7.00 | < 5.00 | 5.00 to 6.00 | Cc1cnc(N2CCN3C(=O)[C@@H](CCCc4cccn5ncnc45)C[C@H]3C2)nc1 [Example 65, (7S,8aS)-7-(3-([1,2,4]triazolo[1,5-a]pyridin-8-yl)propyl)-2-(5-methylpyrimidin-2-yl)hexahydropyrrolo[1,2-a]pyrazin-6(2H)-one]
